Measured values: ChEMBL document CHEMBL1201862, “PubChem BioAssay data set” (2004)
Activity calls are given as the source filed them.

What was measured:
[1] = target: T1, High affinity choline transporter 1 (Homo sapiens, UniProt Q9GZV3); experiment: human choline transporter blockers, potency – cell-based, 5-point CRC, membrane potential dye, dose response (AID 504840); format: functional
T1 sequence (Q9GZV3 whole entry): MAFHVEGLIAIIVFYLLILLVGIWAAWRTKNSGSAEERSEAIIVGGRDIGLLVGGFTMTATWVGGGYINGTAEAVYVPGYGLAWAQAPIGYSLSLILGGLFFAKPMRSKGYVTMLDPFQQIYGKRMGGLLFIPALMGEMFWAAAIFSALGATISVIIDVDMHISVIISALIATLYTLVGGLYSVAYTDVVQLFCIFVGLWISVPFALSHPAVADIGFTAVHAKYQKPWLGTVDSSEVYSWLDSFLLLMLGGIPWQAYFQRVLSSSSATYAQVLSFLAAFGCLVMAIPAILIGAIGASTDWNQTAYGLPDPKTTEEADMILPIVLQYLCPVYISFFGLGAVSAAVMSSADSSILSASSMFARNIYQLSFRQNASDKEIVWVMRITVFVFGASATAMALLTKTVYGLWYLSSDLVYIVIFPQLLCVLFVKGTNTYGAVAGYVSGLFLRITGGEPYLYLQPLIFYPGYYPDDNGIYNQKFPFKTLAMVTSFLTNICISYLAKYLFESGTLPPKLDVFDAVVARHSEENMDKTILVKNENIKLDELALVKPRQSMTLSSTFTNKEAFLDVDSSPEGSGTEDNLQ

INS1 = experiment: INS-1E survival protection against cytokine death – cell-based, luminescence, retest, dose response (AID 449756); format: functional; details: Rattus norvegicus;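 also: cell death triggered by IL-1 beta plus TNF-alpha plus IFN-gamma mixture; protective hits raise ATP signal compared with cytokine alone wells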
Protein Wnt-3a = Protein Wnt-3a (Mus musculus, UniProt P27467); experiment: antagonism of Wnt3a pathway luciferase reporter – Wnt-LIGHT cells, luminescence, selectivity assay for Gli-SUFU antagonist project, dose response (AID 651570); format: functional; details: read-out: IC50_Mean;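 also: Wnt-LIGHT reporter cells stimulated with conditioned medium from Wnt3a-producing cells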
Chain of Protein Wnt-3a (P27467 whole entry): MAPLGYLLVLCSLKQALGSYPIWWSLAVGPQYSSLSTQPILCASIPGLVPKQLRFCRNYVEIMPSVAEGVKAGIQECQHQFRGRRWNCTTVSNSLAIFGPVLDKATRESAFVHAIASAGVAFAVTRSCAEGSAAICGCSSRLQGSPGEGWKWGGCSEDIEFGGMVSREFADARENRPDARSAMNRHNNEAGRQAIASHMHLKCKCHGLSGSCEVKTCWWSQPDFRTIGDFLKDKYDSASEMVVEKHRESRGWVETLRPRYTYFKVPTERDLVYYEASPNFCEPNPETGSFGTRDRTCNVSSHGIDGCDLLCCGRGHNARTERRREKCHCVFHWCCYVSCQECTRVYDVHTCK

[2] = NIH-3T3 fibroblast cytotoxicity, dose response, cytotoxicity control, cell-based, fluorescence, Alamar Blue, secondary assay (AID 2327); format: functional;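 also: NIH-3T3 mouse fibroblasts cultured with fluconazole at 8 µg/mL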
[3] = target: T2, Serine/threonine-protein phosphatase (Candida dubliniensis (strain CD36 / CBS 7987 / NCPF 3949 / NRRLY-17841) (Yeast), UniProt B9W6M3); experiment: blockers of CaCl2-induced CDRE-lacZ signaling – S. cerevisiae, luminescence, secondary, dose response (AID 2388); format: functional, cell-based;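 also: yeast reporter cells carrying a calcineurin-responsive lacZ construct stimulated with calcium chloride; luminescent beta-galactosidase reporter signal in whole cells rather than isolated phosphatase activity; potency for inhibition where a drop in reporter signal means calcineurin blockade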
T2 sequence (B9W6M3 whole entry): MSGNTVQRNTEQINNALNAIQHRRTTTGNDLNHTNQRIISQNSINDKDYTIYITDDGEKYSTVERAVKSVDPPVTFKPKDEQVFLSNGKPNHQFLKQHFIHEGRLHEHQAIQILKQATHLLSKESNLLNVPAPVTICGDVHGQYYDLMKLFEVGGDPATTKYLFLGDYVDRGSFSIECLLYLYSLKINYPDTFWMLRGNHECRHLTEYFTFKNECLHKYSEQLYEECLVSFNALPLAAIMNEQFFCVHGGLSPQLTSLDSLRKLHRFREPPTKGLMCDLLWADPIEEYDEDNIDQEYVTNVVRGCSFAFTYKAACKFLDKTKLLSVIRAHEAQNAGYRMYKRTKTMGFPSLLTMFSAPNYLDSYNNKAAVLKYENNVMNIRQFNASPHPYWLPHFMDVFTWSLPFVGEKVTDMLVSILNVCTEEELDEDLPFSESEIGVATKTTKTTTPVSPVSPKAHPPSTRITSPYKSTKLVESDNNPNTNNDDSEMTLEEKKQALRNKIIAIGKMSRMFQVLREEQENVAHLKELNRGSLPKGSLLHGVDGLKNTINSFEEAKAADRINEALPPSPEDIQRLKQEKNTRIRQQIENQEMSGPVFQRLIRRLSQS

[4] = fluconazole-exposed Candida albicans growth modulators – fluorescence, retest, confirmation (AID 2467); format: functional, cell-based
[5] = target: ATP-dependent molecular chaperone HSP82 (Candida albicans (strain WO-1) (Yeast), UniProt C4YTQ8); experiment: steroid-induced GRE reporter decrease in yeast – S. cerevisiae, luminescence, Hsp90 inhibitor project, dose response (AID 2400); format: functional, cell-based;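 also: beta-galactosidase luminescence from glucocorticoid response element reporter as proxy for Hsp90 function; inhibitor potency where signal loss means Hsp90 inhibition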
Chain of ATP-dependent molecular chaperone HSP82 (C4YTQ8 whole entry): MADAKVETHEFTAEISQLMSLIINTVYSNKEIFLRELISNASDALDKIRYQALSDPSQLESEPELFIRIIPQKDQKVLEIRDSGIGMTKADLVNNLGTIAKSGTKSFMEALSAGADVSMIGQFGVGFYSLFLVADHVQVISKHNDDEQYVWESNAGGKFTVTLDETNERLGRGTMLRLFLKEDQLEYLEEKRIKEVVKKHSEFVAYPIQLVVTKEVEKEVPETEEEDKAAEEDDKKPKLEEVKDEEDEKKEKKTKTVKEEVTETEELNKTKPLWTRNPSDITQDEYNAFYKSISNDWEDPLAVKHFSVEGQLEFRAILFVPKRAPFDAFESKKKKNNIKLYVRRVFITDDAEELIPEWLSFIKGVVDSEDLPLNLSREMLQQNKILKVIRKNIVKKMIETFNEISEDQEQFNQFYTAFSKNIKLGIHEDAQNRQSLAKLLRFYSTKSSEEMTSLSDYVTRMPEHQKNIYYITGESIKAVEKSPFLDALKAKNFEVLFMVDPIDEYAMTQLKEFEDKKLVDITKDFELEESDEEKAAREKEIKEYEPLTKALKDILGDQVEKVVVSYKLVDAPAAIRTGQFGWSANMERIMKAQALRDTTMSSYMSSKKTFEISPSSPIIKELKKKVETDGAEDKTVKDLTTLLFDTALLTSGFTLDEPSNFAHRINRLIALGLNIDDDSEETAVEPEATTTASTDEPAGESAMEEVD

Cytochrome P450 2C9 [6] = target: T3, Cytochrome P450 2C9 (Homo sapiens, UniProt P11712)
T3 sequence (P11712 whole entry): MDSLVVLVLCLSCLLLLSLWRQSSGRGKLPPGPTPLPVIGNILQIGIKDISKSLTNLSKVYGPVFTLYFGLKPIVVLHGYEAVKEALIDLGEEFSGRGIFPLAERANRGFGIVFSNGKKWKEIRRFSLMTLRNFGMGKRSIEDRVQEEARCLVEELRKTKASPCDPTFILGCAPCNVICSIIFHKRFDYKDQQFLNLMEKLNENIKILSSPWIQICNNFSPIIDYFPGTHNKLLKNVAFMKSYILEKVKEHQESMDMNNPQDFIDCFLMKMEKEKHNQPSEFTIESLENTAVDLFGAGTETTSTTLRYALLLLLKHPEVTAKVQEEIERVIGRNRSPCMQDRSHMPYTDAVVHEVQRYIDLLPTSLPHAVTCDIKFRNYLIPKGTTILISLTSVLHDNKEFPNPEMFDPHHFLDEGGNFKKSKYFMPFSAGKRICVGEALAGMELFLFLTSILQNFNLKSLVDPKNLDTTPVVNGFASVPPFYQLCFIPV

Cytochrome P450 3A4 = Cytochrome P450 3A4 (Homo sapiens, UniProt P08684);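 also: CYP3A4 tested as one member of a cytochrome P450 panel screen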
Chain of Cytochrome P450 3A4 (P08684 whole entry): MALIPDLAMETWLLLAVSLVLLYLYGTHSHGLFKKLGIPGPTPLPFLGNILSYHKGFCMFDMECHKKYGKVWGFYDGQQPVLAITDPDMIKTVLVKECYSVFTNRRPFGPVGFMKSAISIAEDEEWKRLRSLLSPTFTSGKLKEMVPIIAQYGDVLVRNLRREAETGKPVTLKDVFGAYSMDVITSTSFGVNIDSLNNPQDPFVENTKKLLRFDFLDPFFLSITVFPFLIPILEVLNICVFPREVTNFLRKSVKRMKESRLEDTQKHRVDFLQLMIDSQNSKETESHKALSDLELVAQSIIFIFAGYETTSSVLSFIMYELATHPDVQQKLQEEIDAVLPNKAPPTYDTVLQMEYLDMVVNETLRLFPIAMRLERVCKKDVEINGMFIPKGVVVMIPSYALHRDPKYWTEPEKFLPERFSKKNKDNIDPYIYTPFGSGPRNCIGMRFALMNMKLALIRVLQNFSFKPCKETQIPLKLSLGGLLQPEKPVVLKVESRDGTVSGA

[7] = target: T4, Lysine-specific demethylase 4C (Homo sapiens, UniProt Q9H3R0); experiment: inhibition of JMJD2C H3K9me3 demethylation – biochemical, DELFIA europium, cherry-picked samples, dose response (AID 488835); format: functional
T4 sequence (Q9H3R0 whole entry): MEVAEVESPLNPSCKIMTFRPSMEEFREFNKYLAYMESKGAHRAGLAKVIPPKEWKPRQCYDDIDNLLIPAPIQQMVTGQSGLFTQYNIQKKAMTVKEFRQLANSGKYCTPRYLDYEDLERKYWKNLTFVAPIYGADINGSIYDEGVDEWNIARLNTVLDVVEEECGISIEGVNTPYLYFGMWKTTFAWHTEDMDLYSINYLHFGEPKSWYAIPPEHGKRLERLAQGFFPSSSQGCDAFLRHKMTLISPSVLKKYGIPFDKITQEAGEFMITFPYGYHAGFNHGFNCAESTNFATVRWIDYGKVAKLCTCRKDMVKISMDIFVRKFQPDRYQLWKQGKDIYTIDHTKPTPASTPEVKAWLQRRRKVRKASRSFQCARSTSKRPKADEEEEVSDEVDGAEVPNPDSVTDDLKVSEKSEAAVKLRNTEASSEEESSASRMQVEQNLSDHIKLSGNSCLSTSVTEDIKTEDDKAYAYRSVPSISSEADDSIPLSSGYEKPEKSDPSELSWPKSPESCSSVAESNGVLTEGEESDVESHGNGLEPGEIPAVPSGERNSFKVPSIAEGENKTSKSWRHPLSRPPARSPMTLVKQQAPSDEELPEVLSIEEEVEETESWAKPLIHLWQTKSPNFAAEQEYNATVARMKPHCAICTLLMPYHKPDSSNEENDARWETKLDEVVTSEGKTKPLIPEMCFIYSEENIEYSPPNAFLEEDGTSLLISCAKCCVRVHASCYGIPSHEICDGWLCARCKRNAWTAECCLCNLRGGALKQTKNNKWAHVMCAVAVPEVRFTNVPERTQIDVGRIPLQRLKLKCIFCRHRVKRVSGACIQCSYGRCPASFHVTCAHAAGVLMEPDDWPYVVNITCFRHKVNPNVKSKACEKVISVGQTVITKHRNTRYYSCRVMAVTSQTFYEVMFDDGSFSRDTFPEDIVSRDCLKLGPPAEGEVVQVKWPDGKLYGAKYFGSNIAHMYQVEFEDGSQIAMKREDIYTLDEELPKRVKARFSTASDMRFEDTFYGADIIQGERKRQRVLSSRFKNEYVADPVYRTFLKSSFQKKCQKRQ

[8] = target: FAD-linked sulfhydryl oxidase ALR (Homo sapiens, UniProt P55789); experiment: ALR-catalysed DTT oxidation blockers – biochemical, H2O2 detection, luminescence, cherry-pick, dose response (AID 493248)
Chain of FAD-linked sulfhydryl oxidase ALR (P55789 whole entry): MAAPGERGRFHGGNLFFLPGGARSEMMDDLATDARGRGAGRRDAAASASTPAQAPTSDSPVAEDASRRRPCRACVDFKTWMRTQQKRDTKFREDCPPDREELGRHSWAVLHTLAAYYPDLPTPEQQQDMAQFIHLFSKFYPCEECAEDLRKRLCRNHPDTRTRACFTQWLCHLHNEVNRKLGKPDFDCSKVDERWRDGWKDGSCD

[9] = target: T5, Polyadenylate-binding protein 1 (Homo sapiens, UniProt P11940); experiment: MLLE binding blockers, Cy5 peptide tracer – biochemical, fluorescence polarization, Cy5-PAM2 peptide, secondary, miRNA deadenylation inhibitor project, dose response (AID 602260); format: functional; details: read-out: IC50_Mean
T5 sequence (P11940 whole entry, the tested form may be a part): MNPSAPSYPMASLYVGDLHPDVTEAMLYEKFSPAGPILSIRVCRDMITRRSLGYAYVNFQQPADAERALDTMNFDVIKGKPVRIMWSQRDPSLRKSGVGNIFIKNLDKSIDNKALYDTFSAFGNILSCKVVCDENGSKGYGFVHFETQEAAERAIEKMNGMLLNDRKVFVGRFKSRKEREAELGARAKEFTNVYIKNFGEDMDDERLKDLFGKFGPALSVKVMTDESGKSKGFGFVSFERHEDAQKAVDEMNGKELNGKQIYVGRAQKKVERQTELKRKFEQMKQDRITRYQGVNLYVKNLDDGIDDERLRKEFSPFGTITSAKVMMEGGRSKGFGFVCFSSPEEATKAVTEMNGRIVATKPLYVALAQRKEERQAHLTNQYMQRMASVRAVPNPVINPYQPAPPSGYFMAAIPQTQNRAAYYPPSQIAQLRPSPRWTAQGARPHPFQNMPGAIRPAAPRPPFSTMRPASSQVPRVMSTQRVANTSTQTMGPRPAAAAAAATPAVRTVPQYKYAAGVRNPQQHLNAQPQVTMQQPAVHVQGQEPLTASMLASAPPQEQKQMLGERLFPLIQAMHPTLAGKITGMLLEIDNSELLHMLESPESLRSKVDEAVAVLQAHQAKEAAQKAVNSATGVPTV

[10] = target: T5, Polyadenylate-binding protein 1; experiment: MLLE domain peptide-binding blockers, IC50 – biochemical, fluorescence polarization, FITC-PAM2 peptide, dose response (AID 602259); format: functional; details: read-out: IC50_Mean
[11] = target: Ras and Rab interactor 1/Tyrosine-protein kinase ABL1 (Homo sapiens, UniProt P00519+Q13671); format: functional;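 also: biochemical TR-FRET dose-response test measuring inhibition of binding between Rin1 and Abl proteins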
Chain of Ras and Rab interactor 1/Tyrosine-protein kinase ABL1 (P00519 whole entry): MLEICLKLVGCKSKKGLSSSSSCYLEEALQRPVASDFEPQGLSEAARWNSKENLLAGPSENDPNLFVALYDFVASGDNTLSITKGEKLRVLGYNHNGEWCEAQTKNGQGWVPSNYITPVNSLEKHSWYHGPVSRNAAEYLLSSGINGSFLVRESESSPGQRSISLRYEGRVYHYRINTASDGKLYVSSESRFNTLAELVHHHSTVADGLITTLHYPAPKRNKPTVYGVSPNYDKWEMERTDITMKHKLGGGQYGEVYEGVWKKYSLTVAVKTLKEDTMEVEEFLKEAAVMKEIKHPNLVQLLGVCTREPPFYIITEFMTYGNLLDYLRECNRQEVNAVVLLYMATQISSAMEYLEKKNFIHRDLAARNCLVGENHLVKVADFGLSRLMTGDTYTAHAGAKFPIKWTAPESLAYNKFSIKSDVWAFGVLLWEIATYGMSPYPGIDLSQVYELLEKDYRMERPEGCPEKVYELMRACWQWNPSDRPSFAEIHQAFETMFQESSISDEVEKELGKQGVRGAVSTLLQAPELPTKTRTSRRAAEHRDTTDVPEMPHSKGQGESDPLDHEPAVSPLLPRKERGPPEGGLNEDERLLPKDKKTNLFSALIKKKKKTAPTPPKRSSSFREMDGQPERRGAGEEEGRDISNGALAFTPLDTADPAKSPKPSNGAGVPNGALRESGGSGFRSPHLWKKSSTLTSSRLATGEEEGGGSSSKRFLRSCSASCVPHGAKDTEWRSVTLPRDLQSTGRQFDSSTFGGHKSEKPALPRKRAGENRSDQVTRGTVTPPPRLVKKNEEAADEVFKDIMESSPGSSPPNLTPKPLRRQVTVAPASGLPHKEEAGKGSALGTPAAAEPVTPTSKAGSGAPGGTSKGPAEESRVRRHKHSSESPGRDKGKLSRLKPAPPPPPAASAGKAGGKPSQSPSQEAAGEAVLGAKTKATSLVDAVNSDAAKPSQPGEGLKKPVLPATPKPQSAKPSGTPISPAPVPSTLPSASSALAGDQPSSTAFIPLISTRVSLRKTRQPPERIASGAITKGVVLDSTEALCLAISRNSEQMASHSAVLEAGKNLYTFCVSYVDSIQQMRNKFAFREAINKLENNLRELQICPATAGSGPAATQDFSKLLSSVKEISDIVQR
Chain of Ras and Rab interactor 1/Tyrosine-protein kinase ABL1 (Q13671 whole entry): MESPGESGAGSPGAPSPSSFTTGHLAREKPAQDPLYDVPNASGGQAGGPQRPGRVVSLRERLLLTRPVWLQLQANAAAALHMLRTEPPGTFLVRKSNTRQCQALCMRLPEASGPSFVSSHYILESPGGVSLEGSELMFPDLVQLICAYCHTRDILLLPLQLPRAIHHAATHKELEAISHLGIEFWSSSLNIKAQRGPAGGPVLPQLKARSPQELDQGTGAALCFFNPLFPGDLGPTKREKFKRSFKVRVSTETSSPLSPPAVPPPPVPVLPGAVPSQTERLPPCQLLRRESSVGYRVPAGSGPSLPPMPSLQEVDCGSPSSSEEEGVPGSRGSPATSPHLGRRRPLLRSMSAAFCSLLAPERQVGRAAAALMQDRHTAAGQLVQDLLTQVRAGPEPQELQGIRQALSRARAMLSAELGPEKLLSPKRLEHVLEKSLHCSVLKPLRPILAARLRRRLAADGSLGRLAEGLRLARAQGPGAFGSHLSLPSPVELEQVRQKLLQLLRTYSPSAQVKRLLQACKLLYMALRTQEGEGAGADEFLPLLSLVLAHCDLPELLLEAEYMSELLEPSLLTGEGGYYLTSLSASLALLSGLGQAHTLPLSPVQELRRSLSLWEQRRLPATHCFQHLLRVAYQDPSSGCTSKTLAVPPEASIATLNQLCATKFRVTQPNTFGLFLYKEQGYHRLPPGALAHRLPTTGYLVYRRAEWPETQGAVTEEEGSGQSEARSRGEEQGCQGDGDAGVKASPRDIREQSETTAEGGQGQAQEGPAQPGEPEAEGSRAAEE

Cytochrome P450 2C9 [12] = target: T3, Cytochrome P450 2C9; remark: listed apart in the source

## CCCOc1ccc(Br)cc1CSC(=N)N
[1]
  IC50: 15.9 µM (active)
INS1
  AC50: 6.45 µM (active)
Protein Wnt-3a
  IC50: 9.88 µM (active)

## CCc1nnc(NC(=O)CSc2ncc(-c3ccccc3)n2C)s1
[2]
  EC50: > 150 µM (inactive)
[3]
  EC50: > 180 µM (inactive)
[4]
  EC50: 1.3 µM (active)
[5]
  EC50: 23.1 µM (active)

## Cc1ccc(S(=O)(=O)NCCC2=CCCCC2)cc1C(N)=O
Protein Wnt-3a
  IC50: 10.8 µM (active)

## C/C(Nc1c(C)n(C)n(-c2ccccc2)c1=O)=C1/C(=O)NC(=O)N(Cc2ccccc2)C1=O
Cytochrome P450 2C9 [6]
  AC50: inconclusive
Cytochrome P450 3A4
  AC50: inconclusive

## c1ccc(-c2nc(-c3ccco3)cs2)nc1
[7]
  AC50: 20 µM (active)
[8]
  AC50: 0.593 µM (active)

## Cc1ccc(C)c(NC(S)=NNC(=O)c2csc(C(C)C)c2)c1
[2]
  EC50: > 150 µM (inactive)
[3]
  EC50: > 180 µM (inactive)
[9]
  IC50: > 66 µM (inactive)
[4]
  EC50: 0.907 µM (active)
[5]
  EC50: > 160 µM (inactive)
[10]
  IC50: > 66 µM (inactive)

## CCOC(=O)CCCCC(=O)c1[nH]c(=O)[nH]c1CSCCO
[11]
  IC50: 0.695 µM (active)

## CN1CCN(c2ncc3nc(CCc4ccccc4)c(=O)n(C)c3n2)CC1
Cytochrome P450 3A4
  AC50: inconclusive
Cytochrome P450 2C9 [12]
  AC50: 39.8 µM (inconclusive)
